Reference: PubChem BioAssay AID1259407 (Chemical Carcinogenesis Research Information System (CCRIS), 2018)
Activity calls are given as the source filed them. The rule behind the calls is not given here.

Tested on: CCRIS mutagenicity, Ames/micronucleus/aberration tests
Assay: CCRIS mutagenicity studies
[1] = Test System: AMES SALMONELLA TYPHIMURIUM, Strain/Indicator: TA98, Metabolic Activation: NONE, Method: PREINCUBATION
[2] = Test System: AMES SALMONELLA TYPHIMURIUM, Strain/Indicator: TA98, Metabolic Activation: NONE, Method: STANDARD PLATE
[3] = Test System: AMES SALMONELLA TYPHIMURIUM, Strain/Indicator: TA98, Metabolic Activation: RAT, LIVER, S-9, AROCLOR 1254, Method: STANDARD PLATE
[4] = Test System: AMES SALMONELLA TYPHIMURIUM, Strain/Indicator: TA100, Metabolic Activation: NONE, Method: STANDARD PLATE
[5] = Test System: AMES SALMONELLA TYPHIMURIUM, Strain/Indicator: TA100, Metabolic Activation: RAT, LIVER, S-9, AROCLOR 1254, Method: STANDARD PLATE
[6] = Test System: AMES SALMONELLA TYPHIMURIUM, Strain/Indicator: TA1535, Metabolic Activation: NONE, Method: STANDARD PLATE
[7] = Test System: AMES SALMONELLA TYPHIMURIUM, Strain/Indicator: TA1537, Metabolic Activation: NONE, Method: STANDARD PLATE
[8] = Test System: AMES SALMONELLA TYPHIMURIUM, Strain/Indicator: TA1537, Metabolic Activation: RAT, LIVER, S-9, AROCLOR 1254, Method: STANDARD PLATE
[9] = Test System: AMES SALMONELLA TYPHIMURIUM, Strain/Indicator: TA1538, Metabolic Activation: NONE, Method: STANDARD PLATE
[10] = Test System: E. COLI, Strain/Indicator: WP2 UVRA, Metabolic Activation: NONE, Method: STANDARD PLATE

Question: With `C[C@H](CCC(=O)O)[C@H]1CC[C@H]2[C@@H]3CCc4cc(O)ccc4[C@H]3CC[C@]12C` as the compound, how does the mutagenic call [1] read?
Answer: inactive; negative

Question: What about the mutagenic call (Test System: AMES SALMONELLA TYPHIMURIUM, Strain/Indicator: TA98, Method: PREINCUBATION) of the same compound?
Answer: inactive; negative

Question: What about the mutagenic call (Test System: AMES SALMONELLA TYPHIMURIUM, Strain/Indicator: TA100, Method: PREINCUBATION) of the same compound?
Answer: inactive; negative

Question: With `N#Cc1cc([N+](=O)[O-])ccc1N=Nc1ccc(N(CCO)CCO)cc1` as the compound, how does the mutagenic call [2] read?
Answer: active; positive

Question: What about the mutagenic call [3] of the same compound?
Answer: active; positive

Question: And the mutagenic call [4]?
Answer: active; positive

Question: What about the mutagenic call [5] of the same compound?
Answer: active; positive

Question: What about the mutagenic call [6] of the same compound?
Answer: inactive; negative

Question: What about the mutagenic call (Test System: AMES SALMONELLA TYPHIMURIUM, Strain/Indicator: TA1535, Metabolic Activation: RAT, LIVER, S-9, AROCLOR 1254, Method: STANDARD PLATE) of the same compound?
Answer: inactive; negative

Question: What about the mutagenic call [7] of the same compound?
Answer: active; positive

Question: And the mutagenic call [8]?
Answer: active; positive

Question: And the mutagenic call [9]?
Answer: active; positive

Question: What about the mutagenic call (Test System: AMES SALMONELLA TYPHIMURIUM, Strain/Indicator: TA1538, Metabolic Activation: RAT, LIVER, S-9, AROCLOR 1254, Method: STANDARD PLATE) of the same compound?
Answer: active; positive

Question: And the mutagenic call (Test System: CHINESE HAMSTER V-79, Strain/Indicator: V-79 (HGPRT)/6-THIOGUANINE, Metabolic Activation: RAT, LIVER, S-9, AROCLOR 1254)?
Answer: inactive; negative

Question: What about the mutagenic call (Test System: CHINESE HAMSTER V-79, Strain/Indicator: V-79/6-THIOGUANINE, Metabolic Activation: NONE) of the same compound?
Answer: inactive; negative

Question: What about the mutagenic call (Test System: UDS RAT HEPATOCYTES, Strain/Indicator: THY INCORP, Metabolic Activation: NONE, Method: AUTORADIOGRAPHY) of the same compound?
Answer: inactive; negative

Question: With `CCC[C@H]1O[C@H]1c1ccccc1` as the compound, how does the mutagenic call (Test System: AMES SALMONELLA TYPHIMURIUM, Strain/Indicator: TA98, Metabolic Activation: NONE, Method: PREINCUBATION (PHOSPHATE-BUFFERED KCL OR SOLUTE-FREE WATER MEDIA)) read?
Answer: inactive; negative

Question: What about the mutagenic call (Test System: AMES SALMONELLA TYPHIMURIUM, Strain/Indicator: TA100, Metabolic Activation: NONE, Method: PREINCUBATION (PHOSPHATE-BUFFERED KCL OR SOLUTE-FREE WATER MEDIA)) of the same compound?
Answer: inactive; negative

Question: What about the mutagenic call (Test System: AMES SALMONELLA TYPHIMURIUM, Strain/Indicator: TA104, Metabolic Activation: NONE, Method: PREINCUBATION (PHOSPHATE-BUFFERED KCL OR SOLUTE-FREE WATER MEDIA)) of the same compound?
Answer: inactive; negative

Question: `CN1C(=O)CC(=O)N(c2ccccc2)c2cc(Cl)ccc21` was tested. Which mutagenic call [2] did it give?
Answer: inactive; negative

Question: What about the mutagenic call (Test System: AMES SALMONELLA TYPHIMURIUM, Strain/Indicator: TA98, Metabolic Activation: RAT, LIVER, S-9, PHENOBARBITAL AND 5,6-BENZOFLAVONE, Method: STANDARD PLATE) of the same compound?
Answer: inactive; negative

Question: What about the mutagenic call [4] of the same compound?
Answer: inactive; negative

Question: What about the mutagenic call (Test System: AMES SALMONELLA TYPHIMURIUM, Strain/Indicator: TA100, Metabolic Activation: RAT, LIVER, S-9, PHENOBARBITAL AND 5,6-BENZOFLAVONE, Method: STANDARD PLATE) of the same compound?
Answer: inactive; negative

Question: And the mutagenic call [6]?
Answer: inactive; negative

Question: And the mutagenic call (Test System: AMES SALMONELLA TYPHIMURIUM, Strain/Indicator: TA1535, Metabolic Activation: RAT, LIVER, S-9, PHENOBARBITAL AND 5,6-BENZOFLAVONE, Method: STANDARD PLATE)?
Answer: inactive; negative

Question: And the mutagenic call [7]?
Answer: inactive; negative

Question: And the mutagenic call (Test System: AMES SALMONELLA TYPHIMURIUM, Strain/Indicator: TA1537, Metabolic Activation: RAT, LIVER, S-9, PHENOBARBITAL AND 5,6-BENZOFLAVONE, Method: STANDARD PLATE)?
Answer: inactive; negative

Question: What about the mutagenic call [10] of the same compound?
Answer: inactive; negative

Question: Which mutagenic call [2] does the source give for `O=C(O)[C@@H]1CS[C@H](c2ccccc2O)N1C(=O)CCSSCCC(=O)N1[C@@H](c2ccccc2O)SC[C@H]1C(=O)O` here?
Answer: inactive; negative

Question: What about the mutagenic call [4] of the same compound?
Answer: inactive; negative

Question: What about the mutagenic call [6] of the same compound?
Answer: inactive; negative

Question: And the mutagenic call [7]?
Answer: inactive; negative

Question: What about the mutagenic call [9] of the same compound?
Answer: inactive; negative

Question: And the mutagenic call (Test System: E. COLI, Strain/Indicator: WP2, Metabolic Activation: NONE, Method: STANDARD PLATE)?
Answer: inactive; negative

Question: And the mutagenic call [10]?
Answer: inactive; negative

Question: `CN(CC(=O)NN)c1ccc2ccccc2c1` was tested. Which mutagenic call [2] did it give?
Answer: inactive; negative

Question: What about the mutagenic call [3] of the same compound?
Answer: inactive; negative

Question: And the mutagenic call [4]?
Answer: inactive; negative

Question: And the mutagenic call [5]?
Answer: inactive; negative

Question: And the mutagenic call [7]?
Answer: inactive; negative

Question: And the mutagenic call [8]?
Answer: inactive; negative

Question: Which mutagenic call (Test System: AMES SALMONELLA TYPHIMURIUM, Strain/Indicator: TA98, Metabolic Activation: HAMSTER, LIVER, S-9, AROCLOR 1254 (30%), Method: PREINCUBATION) does the source give for `O=C(O)CC[N+](=O)[O-]` here?
Answer: inactive; negative

Question: And the mutagenic call [1]?
Answer: inactive; negative

Question: And the mutagenic call (Test System: AMES SALMONELLA TYPHIMURIUM, Strain/Indicator: TA98, Metabolic Activation: RAT, LIVER, S-9, AROCLOR 1254 (30%), Method: PREINCUBATION)?
Answer: inactive; negative

Question: What about the mutagenic call (Test System: AMES SALMONELLA TYPHIMURIUM, Strain/Indicator: TA100, Metabolic Activation: HAMSTER, LIVER, S-9, AROCLOR 1254 (30%), Method: PREINCUBATION) of the same compound?
Answer: active; positive

Question: And the mutagenic call (Test System: AMES SALMONELLA TYPHIMURIUM, Strain/Indicator: TA100, Metabolic Activation: NONE, Method: PREINCUBATION)?
Answer: active; positive

Question: And the mutagenic call (Test System: AMES SALMONELLA TYPHIMURIUM, Strain/Indicator: TA100, Metabolic Activation: RAT, LIVER, S-9, AROCLOR 1254 (30%), Method: PREINCUBATION)?
Answer: active; positive

Question: And the mutagenic call (Test System: CHINESE HAMSTER OVARY, Strain/Indicator: CHO-K1-BH4 (HGPRT)/6-THIOGUANINE, Metabolic Activation: NONE)?
Answer: inactive; negative

Question: And the mutagenic call (Test System: CHINESE HAMSTER OVARY, Strain/Indicator: CHO-K1-BH4 (HGPRT)/6-THIOGUANINE, Metabolic Activation: S-9)?
Answer: inactive; negative

Question: What about the mutagenic call (Test System: E. COLI, Strain/Indicator: WP2 UVRA, Metabolic Activation: HAMSTER, LIVER, S-9, AROCLOR 1254, Method: STANDARD PLATE) of the same compound?
Answer: inactive; negative

Question: What about the mutagenic call (Test System: E. COLI, Strain/Indicator: WP2 UVRA, Metabolic Activation: HAMSTER, LIVER, S-9, Method: STANDARD PLATE) of the same compound?
Answer: inactive; negative

Question: What about the mutagenic call (Test System: E. COLI, Strain/Indicator: WP2 UVRA, Metabolic Activation: MOUSE, LIVER, S-9, AROCLOR 1254, Method: STANDARD PLATE) of the same compound?
Answer: inactive; negative

Question: What about the mutagenic call (Test System: E. COLI, Strain/Indicator: WP2 UVRA, Metabolic Activation: MOUSE, LIVER, S-9, Method: STANDARD PLATE) of the same compound?
Answer: inactive; negative

Question: And the mutagenic call [10]?
Answer: inactive; negative

Question: And the mutagenic call (Test System: E. COLI, Strain/Indicator: WP2 UVRA, Metabolic Activation: RAT, LIVER, S-9, AROCLOR 1254, Method: STANDARD PLATE)?
Answer: inactive; negative

Question: What about the mutagenic call (Test System: E. COLI, Strain/Indicator: WP2 UVRA, Metabolic Activation: RAT, LIVER, S-9, Method: STANDARD PLATE) of the same compound?
Answer: inactive; negative

Question: And the mutagenic call (Test System: MOUSE LYMPHOMA, Strain/Indicator: L5178Y (TK+/TK-), Metabolic Activation: NONE, Method: SUSPENSION/PLATE)?
Answer: active; positive

Question: What about the mutagenic call (Test System: MOUSE LYMPHOMA, Strain/Indicator: L5178Y (TK+/TK-), Metabolic Activation: RAT, LIVER, S-9, AROCLOR 1254, Method: SUSPENSION/PLATE) of the same compound?
Answer: active; positive

Question: For `[Cl][Hg].[Cl][Hg]`, which mutagenic call (End Point: IN VIVO MICRONUCLEUS, Test System: BONE MARROW, Species: HAMSTER, Strain/Sex: SYRIAN/MALE, Route: INTRAPERITONEAL) is on record?
Answer: inactive; negative
